Reference: paper PMC6260619, “Selective Cytotoxicity of Goniothalamin against Hepatoblastoma HepG2 Cells” (Molecules, 2011)
pIC50: −log10 of the molar value. Where two headings read alike, the source gives them in different places.

Tested on: Chang cells
Test: MTT cytotoxicity assay, Chang
Format: cell-based, human
Settings: for pIC50: read-out: IC50 from MTT
Description: HepG2 and Chang cells were plated at 1 × 10^4 cells/well by adding 200 μL of a 5 × 10^4 cells/mL suspension to each well of a 96-well tissue culture plate. The plate was incubated for a sufficient time to assure attachment and 40% to 60% confluency. […] The last row was left as an untreated control. The plates were incubated at 37 °C, 5% CO2, for 24, 48 and 72 hours, respectively. After incubation with compounds, the media was aspirated off and replaced with fresh media. Then, MTT solution (20 μL) for a total volume of 200 μL was added in every well and incubated for 4 to 6 hours at 37 °C with 5% CO2. After that, MTT-containing medium was removed gently and replaced with DMSO (200 μL per well) to mix the formazan crystals until dissolved. The plates were read on microtiter plate reader at 570 nm. For each compound tested, the IC50 (concentration of drug needed to inhibit cell growth by 50%) is generated from the dose-response curves for each cell line.

## O=C1C=CC[C@H](/C=C/c2ccccc2)O1 [Goniothalamin, 5-hydroxy-7-phenylhepta-2,6-dienoic acid lactone]
37.5 μM, 24 hours
  decrease of cell growth vs untreated control: 39%
37.5 μM, 48 hours
  decrease of cell growth vs untreated control: 44%
37.5 μM, 72 hours
  decrease of cell growth vs untreated control: 54%
75 μM, 24 hours
  decrease of cell growth vs untreated control: approximately 49%
75 μM, 48 hours
  decrease of cell growth vs untreated control: ~53%
75 μM, 72 hours
  decrease of cell growth vs untreated control: ~63%
72 hours
  pIC50: 4.46
Homo sapiens, 24 h
  pIC50: 4.10
Homo sapiens, 48 h
  pIC50: 4.20
Homo sapiens, 72 h
  pIC50: 4.46
